The source made the active and inactive calls.
Experiments:
[1] = NIH-3T3 fibroblast cytotoxicity, dose response, cytotoxicity control, cell-based, fluorescence, Alamar Blue, secondary assay (AID 2327); format: functional;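 further: NIH-3T3 mouse fibroblasts cultured with fluconazole at 8 µg/mL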
cells = format: functional
Cytochrome P450 2D6 = Cytochrome P450 2D6 (Homo sapiens, UniProt P10635);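 further: CYP2D6 member of a cytochrome P450 panel assay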
[2] = inhibitors of firefly luciferase expression or activity, dose response, H4 neuroglioma cells, luminescence (AID 1990); format: functional, cell-based
[3] = Luminescence Cell-Based Dose Response HTS to Identify Inhibitors of 5'UTR Stem-Loop Driven Prion Protein mRNA Translation in H4 Neuroglioblastoma Cells. [Related pubchem assays: 1827 (Project Summary), 1813 (Primary HTS)]; format: functional
[4] = inhibitors of SNCA 5'UTR-driven reporter translation, confirmation, H4 neuroglioma cells, luminescence (AID 1988); format: functional, cell-based
Paired box protein Pax-8 = Paired box protein Pax-8 (Homo sapiens, UniProt Q06710); test: inhibitors of PAX8-driven TPO luciferase reporter, dose response, RMG-I cells, cherry-pick (AID 687027); format: functional, cell-based;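 further: luciferase reporter driven by Pax8 target thyroperoxidase promoter measured by SteadyGlo luminescence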
[5] = HEp-2 cell cytotoxicity, dose response, cytotoxicity control for RSV inhibitor project, HTS (AID 2410); format: functional; conditions: human respiratory syncytial virus
Cytochrome P450 2C9 = Cytochrome P450 2C9 (Homo sapiens, UniProt P11712)
[6] = target: T1, Heat shock factor protein 1 (Mus musculus, UniProt P38532); test: inhibition of MG132-induced HSE-luciferase signal, confirmation, cell-based, NIH3T3, luminescence, dose retest (AID 2382); format: functional;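 further: NIH3T3 fibroblasts with HSF1-driven luciferase reporter stressed by proteasome inhibitor MG132; luminescence from HSF1-driven luciferase expression after 8 hours of MG132 stress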
T1 sequence (P38532 whole entry): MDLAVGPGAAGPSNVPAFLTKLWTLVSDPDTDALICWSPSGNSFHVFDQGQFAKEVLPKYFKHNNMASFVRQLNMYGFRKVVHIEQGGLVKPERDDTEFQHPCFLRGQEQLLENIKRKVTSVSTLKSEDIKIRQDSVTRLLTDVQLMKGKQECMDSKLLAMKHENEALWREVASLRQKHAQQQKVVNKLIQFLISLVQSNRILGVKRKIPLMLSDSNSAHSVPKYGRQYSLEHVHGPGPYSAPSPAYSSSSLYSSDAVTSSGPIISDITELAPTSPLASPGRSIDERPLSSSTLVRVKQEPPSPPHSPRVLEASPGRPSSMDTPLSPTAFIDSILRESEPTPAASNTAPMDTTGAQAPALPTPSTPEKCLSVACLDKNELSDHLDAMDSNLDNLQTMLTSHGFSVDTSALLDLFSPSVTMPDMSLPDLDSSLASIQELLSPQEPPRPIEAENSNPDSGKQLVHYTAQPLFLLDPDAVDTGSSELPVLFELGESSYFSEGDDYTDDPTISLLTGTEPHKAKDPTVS

[7] = growth suppression of PTEN-null colon cells, dose response, cell-based, HCT116 PTEN knockout (AID 1047); format: functional;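 further: HCT116 colon tumor cells with PTEN knocked out; cells exposed to compound for 60 hours before readout; potency for loss of cell viability measured by luminescence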
[8] = growth suppression of beta-catenin-knockout colon cells, dose response, cell-based, HCT116, human colon tumor (AID 1045); format: functional;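 further: HCT116 colon tumor cells with beta catenin knocked out; cells exposed to compound for 60 hours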
Cytochrome P450 2C19 = Cytochrome P450 2C19 (Homo sapiens, UniProt P33261); test: Cytochrome panel assay with activity outcomes. Panel member name: p450-cyp2c19 Compounds with AC50 equal or less than 10 uM are considered active; format: functional
[9] = inhibitors of intracellular T. cruzi replication, confirmation, NIH3T3 host cells, beta-gal luminescence (AID 2044); format: functional, cell-based;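 further: intracellular parasites grown in NIH/3T3 mouse fibroblasts as host cells; luminescent beta-galactosidase reporter signal from transgenic T. cruzi replicating inside host cells; inhibitors lower the luminescence signal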
[10] = cytotoxicity toward NIH3T3 fibroblasts, dose response, counter-screen, cell-based, ATP luminescence, mouse fibroblasts (AID 2010); format: functional;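 further: cells exposed to compound for about 90 hours before reading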
H4 = test: Luminescence Cell-Based Dose Response HTS to Identify Activators of 5'UTR Stem-Loop Driven Prion Protein mRNA Translation in H4 Neuroglioblastoma Cells. [Related pubchem assays: 1829 (Project Summary), 1814 (Primary HTS)]; format: functional; conditions: Homo sapiens
[11] = Luminescence Cell-Based Dose Response HTS to Identify Activators of Luciferase Translation or Activity in H4 […] Cells. [Related pubchem assays: 1829 (Project Summary), 1814 (Primary HTS)]; format: functional
[12] = target: T2, Corticotropin-releasing factor receptor 2/Corticotropin-releasing factor-binding protein (Homo sapiens, UniProt P24387+Q13324); test: Dose Response confirmation of uHTS hits for small molecule antagonists of the CRF-binding protein and CRF-R2 receptor complex.; format: functional; conditions: read-out: IC50_Mean
T2 sequence (Q13324 whole entry): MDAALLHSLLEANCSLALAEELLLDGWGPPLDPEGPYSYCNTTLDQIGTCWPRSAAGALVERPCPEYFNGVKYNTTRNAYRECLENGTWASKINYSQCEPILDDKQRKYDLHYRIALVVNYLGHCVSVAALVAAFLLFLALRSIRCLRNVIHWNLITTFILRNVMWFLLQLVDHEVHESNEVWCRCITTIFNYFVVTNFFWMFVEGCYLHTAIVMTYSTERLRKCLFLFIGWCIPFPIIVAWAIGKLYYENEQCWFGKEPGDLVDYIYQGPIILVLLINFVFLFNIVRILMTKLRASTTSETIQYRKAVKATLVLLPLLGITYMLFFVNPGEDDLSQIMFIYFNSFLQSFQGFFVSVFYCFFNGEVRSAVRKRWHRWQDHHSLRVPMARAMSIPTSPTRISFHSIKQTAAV
T2 sequence (P24387 whole entry): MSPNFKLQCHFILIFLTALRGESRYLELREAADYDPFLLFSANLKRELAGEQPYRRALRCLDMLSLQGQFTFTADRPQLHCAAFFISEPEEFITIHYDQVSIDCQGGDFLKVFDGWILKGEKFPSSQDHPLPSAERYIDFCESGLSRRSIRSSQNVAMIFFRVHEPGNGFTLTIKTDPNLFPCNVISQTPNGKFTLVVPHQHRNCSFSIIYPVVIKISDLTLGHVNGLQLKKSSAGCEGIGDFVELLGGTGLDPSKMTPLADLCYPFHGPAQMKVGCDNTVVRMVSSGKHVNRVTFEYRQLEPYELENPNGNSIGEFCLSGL

[13] = target: T2, Corticotropin-releasing factor receptor 2/Corticotropin-releasing factor-binding protein; test: activators of CRF receptor 2 with binding protein – uHTS hits, confirmation (AID 602473); format: functional; conditions: read-out: EC50_Mean

Cytochrome P450 2D6, sequence (P10635 whole entry): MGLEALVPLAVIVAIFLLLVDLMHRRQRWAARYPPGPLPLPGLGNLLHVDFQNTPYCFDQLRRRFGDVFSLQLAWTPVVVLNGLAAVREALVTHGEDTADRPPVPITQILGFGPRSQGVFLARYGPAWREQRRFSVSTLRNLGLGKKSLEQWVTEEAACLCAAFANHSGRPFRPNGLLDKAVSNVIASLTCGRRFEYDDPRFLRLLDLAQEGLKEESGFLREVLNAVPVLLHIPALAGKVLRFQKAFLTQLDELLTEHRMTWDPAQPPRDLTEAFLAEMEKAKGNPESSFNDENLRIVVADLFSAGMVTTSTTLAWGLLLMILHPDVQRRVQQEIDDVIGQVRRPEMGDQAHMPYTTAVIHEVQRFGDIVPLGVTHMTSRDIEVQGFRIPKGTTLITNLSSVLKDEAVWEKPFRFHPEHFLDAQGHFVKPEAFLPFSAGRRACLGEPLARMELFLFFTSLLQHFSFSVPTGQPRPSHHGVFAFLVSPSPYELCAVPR
Cytochrome P450 2C9, sequence (P11712 whole entry): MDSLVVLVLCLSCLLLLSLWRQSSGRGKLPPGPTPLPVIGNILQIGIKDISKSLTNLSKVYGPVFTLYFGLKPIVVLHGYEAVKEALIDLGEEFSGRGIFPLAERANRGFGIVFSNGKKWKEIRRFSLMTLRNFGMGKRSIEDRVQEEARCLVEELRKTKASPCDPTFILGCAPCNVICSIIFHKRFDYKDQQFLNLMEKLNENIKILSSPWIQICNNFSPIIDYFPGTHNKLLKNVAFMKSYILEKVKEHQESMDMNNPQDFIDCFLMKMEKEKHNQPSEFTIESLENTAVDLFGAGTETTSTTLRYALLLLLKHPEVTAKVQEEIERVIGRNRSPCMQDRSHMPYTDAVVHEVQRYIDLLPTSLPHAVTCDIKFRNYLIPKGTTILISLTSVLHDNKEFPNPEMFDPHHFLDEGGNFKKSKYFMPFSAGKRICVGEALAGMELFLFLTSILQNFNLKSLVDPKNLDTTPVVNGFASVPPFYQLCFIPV
Cytochrome P450 2C19, sequence (P33261 whole entry): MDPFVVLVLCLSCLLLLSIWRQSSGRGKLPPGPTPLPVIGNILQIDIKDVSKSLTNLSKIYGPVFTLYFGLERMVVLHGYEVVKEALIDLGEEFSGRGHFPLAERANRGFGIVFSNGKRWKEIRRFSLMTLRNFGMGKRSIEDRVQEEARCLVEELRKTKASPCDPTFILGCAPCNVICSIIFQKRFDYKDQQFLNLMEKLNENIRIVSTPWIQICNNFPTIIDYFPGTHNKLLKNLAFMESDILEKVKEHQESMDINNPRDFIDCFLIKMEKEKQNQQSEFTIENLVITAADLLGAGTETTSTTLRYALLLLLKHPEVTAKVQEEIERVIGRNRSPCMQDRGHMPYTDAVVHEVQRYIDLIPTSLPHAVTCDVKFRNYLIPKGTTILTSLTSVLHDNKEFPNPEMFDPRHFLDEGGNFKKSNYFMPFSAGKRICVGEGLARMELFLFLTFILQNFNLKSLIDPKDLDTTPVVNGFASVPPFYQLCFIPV
Paired box protein Pax-8, sequence (Q06710 whole entry): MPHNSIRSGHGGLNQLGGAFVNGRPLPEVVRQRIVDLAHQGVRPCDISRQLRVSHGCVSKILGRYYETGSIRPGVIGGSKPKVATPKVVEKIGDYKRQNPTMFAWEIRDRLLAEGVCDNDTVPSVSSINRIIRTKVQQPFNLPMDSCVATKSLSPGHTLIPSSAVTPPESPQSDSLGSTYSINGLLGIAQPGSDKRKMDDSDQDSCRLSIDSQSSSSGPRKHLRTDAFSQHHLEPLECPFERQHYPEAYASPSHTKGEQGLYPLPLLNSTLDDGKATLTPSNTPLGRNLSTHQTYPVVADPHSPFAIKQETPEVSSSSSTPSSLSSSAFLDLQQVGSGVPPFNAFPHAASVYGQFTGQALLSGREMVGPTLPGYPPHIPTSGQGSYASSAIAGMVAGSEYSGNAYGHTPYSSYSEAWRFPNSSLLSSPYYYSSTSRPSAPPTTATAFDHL

NC(=O)c1c(NC(=O)c2ccccc2F)sc2c1CCCC2
EC50 [1]: 25.1 µM (active)

Cc1ccc(S(=O)(=O)N2CCC(C(=O)OCc3ccccc3)CC2)cc1C
IC50 (cells): 18.6 µM (active)

COc1cc(C(=O)OC2C[C@H]3CC[C@@H](C2)N3C)ccc1O (some centres not stated)
AC50 (Cytochrome P450 2D6): 7.94 µM (inconclusive)

CCOC(=O)C[C@@H](C(=O)OCC)[C@@H]1CCCCC1=O
AC50 (Cytochrome P450 2D6): 6.31 µM (inconclusive)

COc1ccc(O)c(/C=N/NC(=O)c2ccc(N3CCCC3=O)cc2)c1
EC50 [1]: > 160 µM (inactive) | EC50 [2]: 14.8 µM (active) | EC50 [3]: 16.3 µM (active) | EC50 [4]: 12.5 µM (active) | AC50 (Paired box protein Pax-8): < 0.26 µM (active)

CCCOc1ccc2c3c(c(=O)oc2c1)CCCC3
CC50 [5]: > 50 µM (active)

O=C(OCn1nnc2ccccc2c1=O)c1cccs1
IC50 (cells): 15.6 µM (active)

N#C/C(=C(\O)Nc1ccccc1)c1nc2ccccc2[nH]1
IC50 (cells): 2.43 µM (active)

COc1ccc2c3c([nH]c2c1)[C@@H](CO)N(C(=O)Nc1cccc(F)c1)CC31CCN(S(=O)(=O)c2cccc(C)c2)CC1
AC50 (Paired box protein Pax-8): 6 µM (active)

Cn1c(CCN2CCCC2)nc2cc(NS(=O)(=O)c3ccccc3)ccc21
AC50 (Paired box protein Pax-8): 6.61 µM (active)

COC(=O)c1nn(-c2ccccc2)c(=O)cc1Oc1ccccc1
AC50 (Cytochrome P450 2C9): 11.2 µM (inconclusive)

CC1Cc2ccccc2N1C(=O)COC(=O)c1ccc(S(=O)(=O)N(C)C)cc1 (configuration not stated)
EC50 [6]: > 195 µM (not active)

CCNC(=O)COC(=O)c1cc(-c2ccc(OC)cc2)nc2ccccc12
AC50 (Cytochrome P450 2C9): 2.51 µM (inconclusive)

Cc1nn(-c2nc3ccccc3s2)c(N)c1Sc1ccc(F)cc1
EC50 [7]: 15.5 µM (active) | EC50 [8]: 19.6 µM (active)

C=CCn1c(COc2ccccc2)nnc1SCC(=O)N/N=C/c1ccc(C)cc1
AC50 (Cytochrome P450 2C19; read-out: AC50): 15.8 µM (inconclusive) | AC50 (Cytochrome P450 2D6): 39.8 µM (inconclusive)

O=S(=O)(c1ccccc1F)N1CC[C@@H]2[C@H](CO)Nc3ccc(C4=CCCCC4)cc3[C@@H]21
AC50 (Paired box protein Pax-8): 28.2 µM (active)

CCn1c2ccccc2c2cc(NC(=O)c3ccco3)ccc21
CC50 [5]: 16.2 µM (active)

O=C1CC(N2CC=C(c3ccc(F)cc3)CC2)C(=O)N1c1ccc(F)cc1 (configuration not stated)
EC50 [6]: > 195 µM (not active)

O=S1(=O)OC(c2ccc(O)cc2)(c2ccc(O)cc2)c2ccccc21 [PHENOLSULFONPHTHALEIN]
AC50 (Cytochrome P450 2C9): 6.31 µM (inconclusive)

Cc1ccc(S(=O)(=O)N(CC(=O)Nc2ccc(Cl)c([N+](=O)[O-])c2)C2CCCCC2)cc1
EC50 [9]: 3.08 µM (active) | EC50 [7]: 16.2 µM (active) | EC50 [10]: > 60 µM (not active) | EC50 [8]: 19 µM (active)

COc1c(OC(C)=O)ccc(/C=C/c2ccc3cccc(OC)c3n2)c1[N+](=O)[O-]
CC50 [5]: > 50 µM (active)

Cc1cc(C(C)(C)C)ccc1OCC(=O)N/N=C\c1c(C)n(C)n(-c2ccccc2)c1=O
EC50 [6]: > 195 µM (not active)

COc1ccc(-c2nc(CSCC(=O)NCCC3=CCCCC3)c(C)o2)cc1OC
CC50 [5]: > 50 µM (active)

O=S(=O)(/C=C/c1ccccc1)N1CCC(c2nc(O)c3nnn(Cc4ccccc4)c3n2)CC1
CC50 [5]: 27.7 µM (active)

CC(C)OC(=O)C(C)Oc1ccc(C(=O)NCCc2ccccc2)cc1 (configuration not stated)
IC50 (cells): 10.3 µM (active)

CC1CCCN(C/C=C/c2ccccc2[N+](=O)[O-])C1 (configuration not stated)
AC50 (Cytochrome P450 2C9): 0.2 µM (inconclusive)

Cc1cc(Br)c2[nH]cc(CCNC(=O)c3ccco3)c2c1
EC50 [6]: > 195 µM (not active)

CC1=CCC2C(=O)N(c3ccc(C)c(Br)c3)C(=O)C2C1 (configuration not stated)
EC50 [6]: > 195 µM (not active)

Cc1cc(C(=O)COC(=O)C2=COCCO2)c(C)n1-c1cccc(F)c1
EC50 (H4): 0.887 µM (active)

Cc1ccc(OC(=O)c2cccc([N+](=O)[O-])c2)c(-n2nc3ccccc3n2)c1
EC50 [11]: 0.588 µM (active)

Cc1ccccc1-c1cncnc1N(C)Cc1ccco1
AC50 (Cytochrome P450 2D6): 20 µM (inconclusive)

Cc1c(C(=O)Nc2ccc3c(c2)OCCO3)cnn1C
EC50 [6]: 3.49 µM (active)

O=C(OCc1cc(=O)n2cc(Br)ccc2n1)C1COc2ccccc2O1 (configuration not stated)
EC50 [6]: > 195 µM (not active)

CCSc1nc2c(c(-c3ccc(C)o3)c1C#N)CCCC2
CC50 [5]: 37.5 µM (active)

CCSc1nnc(-c2ccccc2NC(C)=O)c(O)n1
AC50 (Cytochrome P450 2C19): inconclusive | AC50 (Cytochrome P450 2C9): 31.6 µM (inconclusive)

CCOC(=O)c1cnc2ccc(C(=O)OC)cc2c1Nc1ccc(C(=O)O)cc1
AC50 (Paired box protein Pax-8): 66.4 µM (active)

COCCCNCC(=O)c1c(N)n(Cc2ccccc2)c(=O)n(C)c1=O
AC50 (Cytochrome P450 2C19; read-out: AC50): 35.5 µM (inconclusive) | AC50 (Cytochrome P450 2D6): 14.1 µM (inconclusive)

COc1ccc(Oc2ncc3ncc(=O)n(Cc4cccs4)c3n2)cc1
AC50 (Cytochrome P450 2C19; read-out: AC50): 25.1 µM (inconclusive) | AC50 (Cytochrome P450 2D6): 39.8 µM (inconclusive)

COc1ccccc1C1NC(=O)CCC1[N+](=O)[O-] (configuration not stated)
EC50 [6]: > 195 µM (not active)

CSCCC(=O)N1CCCC(CNC(=O)c2ccc(-c3ccccc3)cc2)C1 (configuration not stated)
IC50 (cells): 11.6 µM (active)

CCCCCCC/C=C\CCCCCCCCC(=O)O
AC50 (Cytochrome P450 2C19; read-out: AC50): 39.8 µM (inconclusive) | AC50 (Cytochrome P450 2C9): 39.8 µM (inconclusive)

O=C(/C=C/c1ccc(N2CCCCC2)c([N+](=O)[O-])c1)c1ccc(S(=O)(=O)N2CCCC2)cc1
EC50 [7]: 4.4 µM (active) | EC50 [8]: 3.42 µM (active)

Nc1c(-c2cccs2)cnn1-c1nc(-c2ccc(F)cc2)cs1
EC50 [11]: 0.304 µM (active) | AC50 (Cytochrome P450 2C9): 0.158 µM (inconclusive)

CC(C)OC(=O)c1cc2ccccc2oc1=O
AC50 (Cytochrome P450 2C9): 10 µM (inconclusive)

CC1CCC(NC(=O)c2ccc3c(c2)S(=O)(=O)c2ccccc2C3=O)CC1 (configuration not stated)
CC50 [5]: > 50 µM (active)

COc1cccc(-c2cncnc2NCc2cnc(C)cn2)c1
AC50 (Cytochrome P450 2D6): 15.8 µM (inconclusive)

O=C(CNC(=S)N(CCCN1CCOCC1)Cc1cccs1)NCc1ccccc1Cl
EC50 [6]: > 195 µM (not active)

CCC(C)NC(=O)C1(C)CCC(=O)N1Cc1ccccc1OC (configuration not stated)
EC50 [6]: > 195 µM (not active)

CC(=O)N(/N=C/c1cccc(C)c1)c1nc(-c2ccc(Br)cc2)cs1
AC50 (Cytochrome P450 2C19; read-out: AC50): 0.0708 µM (inconclusive) | AC50 (Cytochrome P450 2C9): 1.12 µM (inconclusive)

O=C(c1ccncc1)N1CCC2(CCN(Cc3ccccc3)CC2)CC1
AC50 (Cytochrome P450 2C19): inconclusive | AC50 (Cytochrome P450 2D6): 12.6 µM (inconclusive)

CCOc1nc(C)ccc1-c1noc(-c2cccnc2)n1
EC50 [6]: > 195 µM (not active)

CCOC(=O)C(NCc1ccccn1)(NC(=O)c1cccnc1)C(F)(F)F (configuration not stated)
IC50 [12]: > 47.1 µM (inactive) | EC50 [13]: > 53 µM (inactive)

C[C@@H]1CN([C@@H](C)CO)C(=O)Cc2cc(NC(=O)Nc3ccc(C(F)(F)F)cc3)ccc2O[C@H]1CN(C)Cc1ccc(Cl)c(Cl)c1
AC50 (Paired box protein Pax-8): 11.1 µM (active)

CCC1(C)Cc2c(sc3nnn(CC(=O)Nc4ccc(C)cc4)c(=O)c23)CO1 (configuration not stated)
AC50 (Cytochrome P450 2D6): 22.4 µM (inconclusive)
